Consider two molecules from ChEMBL document CHEMBL1133460, “Synthesis and biological evaluation of certain alpha,beta-unsaturated ketones and their corresponding fused pyridines as antiviral and cytotoxic agents” (J Med Chem, 2000).

As usually defined, the TGI is the concentration giving total growth inhibition. One may read the IC50 as the concentration needed to halve the response being measured. What is called GI50 is the concentration at which growth is held to half of that of the control.

Assay [1] has as its system Panel melanoma (Carcinoma cell lines). Briefly: In vitro growth inhibitory concentration against melanoma cancer cell lines. The following applies: Homo sapiens. In kind it is functional.
Assay [2] relates to Human alphaherpesvirus 1. Briefly: 50% loss of the monolayer present around the viral plaques in uM. In kind it is functional, organism-based.
Assay [3] relates to Panel renal (Carcinoma cell lines). Briefly: In vitro growth inhibitory concentration against renal cancer cell lines. The following applies: Homo sapiens. The format is functional.
Assay [4] can be described thus: In vitro median growth inhibitory concentration against colon cancer cell lines. The format is functional. The conditions noted are these: Homo sapiens.
Assay [5] concerns Human alphaherpesvirus 1. Briefly: In vitro antiviral activity against Herpes Simplex-1 virus (HSV-1) expressed as percent reduction in the number of viral plaques. In kind it is functional. Further details: concentration or dose not given beside the values; call rule not given here.
Assay [6] relates to Panel melanoma (Carcinoma cell lines). Briefly: In vitro median growth inhibitory concentration against melanoma cell lines. The following applies: Homo sapiens. In kind it is functional.
In assay [7] the test system is MT4. Briefly: In vitro inhibitory activity against uninfected T4 cells. In kind it is functional, cell-based. The conditions noted are these: Homo sapiens.
Assay [8] deals with Ovarian cancer cell line. The assay is described as follows: In vitro growth inhibitory concentration against ovarian cancer cell lines. The following applies: Homo sapiens. The format is functional.
For assay [9], the system named is Breast cancer cell line. Briefly: (§1) In vitro median growth inhibitory concentration against breast cancer cell lines. The format is functional. The following applies: Homo sapiens.
The test system of assay [10] is Human immunodeficiency virus 1. The assay is described as follows: In vitro effective concentration against HIV-1 cytopathic effect in T4 cells; Inactive. The format is functional, organism-based. For orientation: Damage to the host cells serves as the signal in cytopathic effect assays.
Assay [11] relates to Human alphaherpesvirus 1. The assay is described as follows: concentration caused 50% loss of the monolayer present around the viral plaques in ug/mL. The format is functional, organism-based.
Assay [12] relates to Panel leukemia (Carcinoma cell lines). The assay is described as follows: In vitro growth inhibitory concentration against leukemia tumor cell lines. The format is functional. The following applies: Homo sapiens.
Assay [13] concerns Ovarian cancer cell line. Briefly: In vitro median growth inhibitory concentration against ovarian cancer cell lines. The format is functional. The conditions noted are these: Homo sapiens.
The subject of assay [14] is Panel CNS (Carcinoma cell lines). Briefly: In vitro growth inhibitory concentration against CNS cancer cell lines. The following applies: Homo sapiens. In kind it is functional.
Assay [15] relates to Panel prostate (Carcinoma cell lines). Briefly: In vitro median growth inhibitory concentration against prostate cancer cell lines. In kind it is functional. The following applies: Homo sapiens.
For assay [16], the system named is Panel CNS (Carcinoma cell lines). Briefly: In vitro median growth inhibitory concentration against CNS cancer cell lines. In kind it is functional. The following applies: Homo sapiens.
Assay [17] has as its system Tumor cell line. Briefly: In vitro growth inhibitory concentration against non-small-cell lung cancer cell lines. In kind it is functional. The conditions noted are these: Homo sapiens.
Assay [18] has as its system Panel leukemia (Carcinoma cell lines). The assay is described as follows: In vitro median growth inhibitory conc. against leukemia was estimated. In kind it is functional. The conditions noted are these: Homo sapiens.
Assay [19] concerns Panel prostate (Carcinoma cell lines). Briefly: In vitro growth inhibitory concentration against prostate cancer cell lines. In kind it is functional. The conditions noted are these: Homo sapiens.
The subject of assay [20] is Human alphaherpesvirus 1. The assay is described as follows: Minimum antiviral concentration proved to be lethal to viral population in uM. In kind it is functional.
Assay [21] has as its system Human alphaherpesvirus 1. Briefly: Minimum antiviral concentration proved to be lethal to viral population in ug/mL. In kind it is functional.
A short description of assay [22]: Full panel mean-graph midpoint (MG-MID).
For assay [23], the system named is Breast cancer cell line. Briefly: In vitro growth inhibitory concentration against breast cancer cell lines. The conditions noted are these: Homo sapiens. In kind it is functional.
The species entered for assay [24] is Homo sapiens. Briefly: Selectivity ratio between the full panel MG-MID and leukemia subpanel MG-MID was determined. In kind it is functional.
Assay [25] can be described thus: In vitro growth inhibitory concentration against colon cancer tumor cell lines. In kind it is functional. The conditions noted are these: Homo sapiens.
Assay [26] has as its system Panel renal (Carcinoma cell lines). The assay is described as follows: In vitro median growth inhibitory concentration against renal cancer cell lines. The format is functional. The following applies: Homo sapiens.
Assay [27] has as its system NSCLC. The assay is described as follows: In vitro median growth inhibitory concentration against non-small-cell lung cancer. The format is functional. The following applies: Homo sapiens.
Assay [28] concerns Tumor cell line. Described as §1. The format is functional. The conditions noted are these: Homo sapiens.

Structures are written as SMILES. ≈ marks a conversion by molar mass, not a printed value. Where “and” joins values, the source holds several entries; their conditions need not be identical. Equal entries are not always repeated. Some results are limits rather than exact numbers.

With `Cc1ccc(/C=C2\CN(C)CC3=C2N=C(S)NC3c2ccc(C)cc2)cc1` (stereo not given), the TGI was greater than 100 µM in [1]; 96.9 µM in assay [3]; 94 µM in assay [8]; 62.3 µM in assay [12]; 94.1 µM in [14]; 89.9 µM in assay [17]. Moreover, the TGI was greater than 100 µM in [19], 88.8 µM in assay [23] and 83.6 µM in assay [25]. The figures for the IC50 in [2], in [7] and in assay [11] were 0.19 µM, 27.6 µM and 0.07 µg/mL (≈ 0.186 µM), respectively. Besides, the GI50 in assay [4] was determined as 37.1 µM; in [6] it was 58.8 µM; in assay [9], 39.4 µM; in [13], 51.2 µM; in [15], 38.3 µM; in assay [16], 53.7 µM. Moreover, the results for the GI50 in [18], in assay [26] and in [27] were 19.2 µM, 60.8 µM and 59.6 µM, respectively. Besides, in [5], the Reduction amounted to 45%. Moreover, the EC50 result in assay [10] is recorded as “Not Active”. Further, the MAC in assay [20] is 0.27 µM; in assay [21] it was 0.1 µg/mL. Moreover, in assay [22], the MG-MID was 34.5 µM and 86.5 µM. Besides, the Ratio in [24] turned out to be 1.8.
For `COc1ccc(/C=C2\CN(C)CC3C2=NN(c2ccccc2)C3c2ccc(OC)cc2)cc1` (stereo not given), the 50% growth inhibitory concentration (GI50) in [4] was greater than 100 µM; in assay [6], 77.7 µM; in [28], 91.8 µM; in [13], 80.7 µM; in assay [15] it was greater than 100 µM; in assay [16], 63.1 µM. Also, the 50% growth inhibitory concentration (GI50) is greater than 100 µM in assay [18], 54.7 µM in assay [26] and 82.1 µM in [27]. The half-inhibitory concentration (IC50) in assay [7] is greater than 200 µM. The EC50 result in assay [10] was “Not Active”. The same molecule returned an MG-MID in [22] of 72.9 µM. Also, in assay [24], the Ratio amounted to 0.7.
